Columns and labels:
[1] = test system: naja naja (snake venom) phospholipase A2 (PLA2)-induced paw edema; experiment: Phospholipase A2-Induced Paw Edema (PIPE); type: in vivo, male Wistar rats; conditions: subplantar; for PIPE 0.1M: 0.1 M test compound injected with PLA2 (3 units/100 μl/paw), rat left hindpaw, two hours; for PIPE ED50: standards, rat hindpaw
Protocol: Phospholipase A2 -Induced Paw Edema (PIPE)
The ability of compounds to reverse naja naja (snake venom) phospholipase A2 (PLA2)-induced paw edema in male Wistar rats (100-125 gm) was measured. PLA2 (3 units/100 μl dH2 O/paw) alone or with 0.1 M of the test compound was injected in the subplantar region of the rat left hindpaw. Immediately following injection and at two hours post administration, the paw was immersed in a mercury bath, and paw displacement was measured on a recorder via a transducer. The value was then converted to mm Hg. […] Giessler, A. J. et al., "Agents and Actions", Vol. 10, "Trends in Inflammation Research" (1981), p. 195.

[2] = test system: ear edema induced by topical application of TPA (phorbol 12-myristate acetate); experiment: TPA-Induced Ear Edema (TPAEE); type: in vivo, Female Swiss Webster mice; conditions: 10 μg/ear topical; TPA 10 μg/ear; about 5 hours; relative to control
Protocol: TPA-Induced Ear Edema (TPAEE)
The purpose of this assay was to determine the ability of a topically applied compound to prevent ear edema induced by topical application of TPA (phorbol 12-myristate acetate). Female Swiss Webster mice topically received TPA (10 μg/ear) on the right ear and vehicle on the left ear. The test compound (10 μg/ear) was applied to both ears. After about 5 hours, the animals are sacrificed and a 4 mm diameter plug is taken from each ear and weighed. The difference between the right and left ear plug weights for each animal was determined. The antiinflammatory activity of the test compound is expressed as the mean percent change in ear plug weight of the treated animals compared to the mean percent change in the plug weight of the control animals. (Standard: Indomethacin:--86% at 1 mg/ear). Young, J. M. et al., J. Invest. Dermatol., 80 (1983), pp. 48-52.

5-lipoxygenase = target: T1, 5-lipoxygenase (Rattus norvegicus, UniProt P12527); experiment: In Vitro 5-Lipoxygenase Assay (5-HETE); type: biochemical; conditions: RBL-1 cell-free supernatant, 10 μM arachidonic acid, 37° C.
T1 construct: cell-free 5-lipoxygenase enzyme obtained from rat basophilic leukemia (RBL-1) cells; endogenous in cells; host or cells: RBL-1 rat basophilic leukemia cells, cell-free supernatant of sonicated cells
T1 sequence (P12527 1-673): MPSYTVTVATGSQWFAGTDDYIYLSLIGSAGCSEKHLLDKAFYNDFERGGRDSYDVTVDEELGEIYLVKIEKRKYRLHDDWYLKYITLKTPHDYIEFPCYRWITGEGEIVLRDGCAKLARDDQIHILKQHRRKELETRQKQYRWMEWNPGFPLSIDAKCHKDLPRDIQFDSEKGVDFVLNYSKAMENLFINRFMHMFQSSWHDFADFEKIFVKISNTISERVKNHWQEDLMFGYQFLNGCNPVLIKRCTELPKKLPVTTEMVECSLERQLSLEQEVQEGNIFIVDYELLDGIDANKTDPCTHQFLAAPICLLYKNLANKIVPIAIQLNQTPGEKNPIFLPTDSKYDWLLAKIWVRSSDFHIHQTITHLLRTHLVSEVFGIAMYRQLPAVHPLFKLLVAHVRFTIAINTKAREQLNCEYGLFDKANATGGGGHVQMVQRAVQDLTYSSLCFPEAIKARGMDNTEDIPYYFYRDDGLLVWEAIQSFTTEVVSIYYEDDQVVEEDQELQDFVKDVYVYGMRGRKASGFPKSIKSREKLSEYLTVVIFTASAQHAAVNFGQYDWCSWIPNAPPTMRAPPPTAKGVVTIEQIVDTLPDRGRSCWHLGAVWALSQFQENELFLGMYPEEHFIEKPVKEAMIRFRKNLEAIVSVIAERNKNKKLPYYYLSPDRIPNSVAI
Protocol: The ability of a compound to reduce 5-HETE production by cell-free 5-lipoxygenase enzyme obtained from rat basophilic leukemia (RBL-1) cells was measured by a modified procedure of Cochran et al. [Biochem. Biophys. Res. Commun., 161, 1327 (1989)]. RBL-1 cell-free supernatants were prepared by a modification of the method of Jakschik et al., [Prostaglandins, 25, 767 (1983)]. Cells (1×10^9) were collected by centrifugation (22°) and washed at […] with 50 mM phosphate buffer at 5×10^7 cells/ml. Cells were lysed on ice for 45 seconds with a Teckmar sonic disrupter. The homogenate was centrifuged (4° C) for 25 minutes and the supernatant (5 μg protein/μl) was decanted and stored at -80° C. A 1% dimethylsulfoxide (DMSO) vehicle (DMSO in deionized water) was utilized at various concentrations of the test compound. Duplicate reactions were run in 35mM buffer in the presence of 5 μM ATP, 50 μM CaCl2 and 10 μM arachidonic acid at 37° C. The reaction was terminated with 10 μl 0.3 citrate buffer and diluted with BGGE buffer (0.01M phosphate, 0.1% bovine gamma globulin, pH 8.5) containing 114 μM BHT with ice bath cooling. 5-Hydroxyeicosatetraenoic acid (5-HETE) levels were quantitated by radioimmunoassay according to standard procedures.

[3] = test system: phenyl-para-quinone induced writhing; experiment: phenyl-para-benzoquinone writhing assay in mice (analgesia); type: in vivo; conditions: at 20 mg/kg
Source text: The compounds of the present invention are also useful as analgesic agents due to their ability to alleviate pain in mammals. […] Exptl. Biol. Med., 95, 729 (1957)].

[4] = test system: cyclooxygenase metabolite (PGE2) formation in cultured 3T3 mouse fibroblasts (CCL92-3T3); experiment: In Vitro Cyclooxygenase Assay (PGE2); type: cell-based; conditions: Fibroblast, 24 hours; for IC50: radioimmunoassay
Protocol: The ability of a compound to reduce cyclooxygenase metabolite formation in cultured 3T3 mouse fibroblasts (CCL92-3T3) was measured by radioimmunoassay of prostaglandin E2 (PGE2) levels in the culture media. The 3T3 cells were maintained in complete Dulbecco's Modified Eagles Medium (DMEM) containing 10% calf serum, 2 mM L-glutamine and 5000 units/ml of penicillin/streptomycin. After seeding in 24 mm tissue culture dishes at […], the cells were cultured for 24 hours. Media was removed by aspiration and replaced with DMEM (1 ml/well, 4 wells/treatment) containing test compound, which was previously dissolved in ethanol, or vehicle at various concentrations. The cells were then incubated for 24 hours and PGE2 levels in the media were quantitated by radioimmunoassay according to established procedure (Lingren et al., FEBS Lett., 48, 22). The mean value from duplicate determinations was utilized to assess the % change from control values for each treatment group.

[5] = test system: mouse ear edema induced by topical application of arachidonic acid; experiment: Arachidonic Acid-Induced Mouse Ear Edema (AAEE); type: in vivo, Female Swiss Webster mice; conditions: 1 mg/ear topical, 30 min before arachidonic acid 4 mg/ear; relative to control
Protocol: Arachidonic Acid-Induced Mouse Ear Edema (AAEE)
The purpose of this assay was to determine the ability of a topically applied compound to prevent mouse ear edema induced by topical application of arachidonic acid. Female Swiss Webster mice topically received vehicle or test compound (1.0 mg/ear) on both ears (10 μl on outer and inner ears). After 30 minutes, arachidonic acid is applied to the right ear of each mouse of each group in the amount of 4 mg/ear. Vehicle is applied to the left ear of each mouse of each group at a volume of 20 μl/ear. After an additional hour, the mice are sacrificed and a 4 mm plug is taken from each ear and weighed. The difference between the right and left ear plugs was determined for each animal. The antiinflammatory activity of the test compound is expressed as the mean percent change in the ear plug weight of the treated animals relative to the mean percent change in weights of control animals' ear. (Standard: Indomethacin--90% at 1 mg/ear). Young, J. M. et al., Invest. Dermatol., 80, (1983), pp. 48-52.

| Compound | PIPE 0.1M [1] | TPAEE percent change [2] [%] | IC50 (5-lipoxygenase) [nM] | % Inhibition of Writhing [3] [%] | inhibition at 1 µM ([4]; @1 μM, read-out: PGE2 % change) [%] | AAEE % Change [5] [%] | IC50 [4] [nM] | PIPE ED50 [1] [M] |
| --- | --- | --- | --- | --- | --- | --- | --- | --- |
| O=C1c2ccccc2COc2ccc(CC(=O)N(O)C3CCCCC3)cc21 [N-Cyclohexyl-2-(6,11-dihydro-11-oxodibenz[b,e]oxepin-2-yl)-N-hydroxyacetamide] | -85 | -52 | 500 | 68 | 17 | -29 | – | – |
| CN(O)CCc1ccc2c(c1)C(=O)c1ccccc1CO2 [2-(6,11-Dihydro-11-oxodibenz[b,e]oxepin-2-yl)-N-hydroxy-N-methyl-ethylamine] | -70 | -50 | 240 | – | – | -46 | 100 | – |
| CCN(CC)CCCC(C)Nc1c2ccc(Cl)cc2nc2ccc(OC)cc12 (centres unmarked) [Quinacrine, reference compound] | – | – | – | – | – | – | – | 0.1 |
| CC(C)Cc1ccc(C(C)C(=O)O)cc1 (centres unmarked) [Ibuprofen, reference compound] | – | – | – | – | – | – | 22 | – |
| CCN(O)CCc1ccc2c(c1)Cc1ccccc1CO2 [2-(6,11-Dihydrodibenz[b,e]oxepin-2-yl)-N-ethyl-N-hydroxyethylamine] | – | -84 | 280 | – | – | -50 | – | – |
| C[C@]12CCC(=O)C=C1CC[C@@H]1[C@@H]2[C@@H](O)C[C@@]2(C)[C@H]1CC[C@]2(O)C(=O)CO [Hydrocortisone, reference compound] | – | – | – | – | – | – | – | 0.46 |
| CN(O)C(=O)CCc1ccc2c(c1)Cc1ccccc1CO2 [3-(6,11-Dihydro-dibenz[b,e]oxepin-2-yl)-N-hydroxy-N-methylpropanamide] | – | – | 80 | – | – | -67 | 1000 | – |
| O=C1c2ccccc2COc2ccc(CCC(=O)N(O)C3CCCCC3)cc21 [3-(6,11-Dihydro-11-oxodibenz[b,e]oxepin-2-yl)-N-cyclohexyl-N-hydroxypropanamide] | – | – | – | 76 | – | – | – | – |
| CN(O)C(=O)CCc1ccc2c(c1)C(=O)c1ccccc1CO2 [3-(6,11-Dihydro-11-oxodibenz[b,e]oxepin-2-yl)-N-hydroxy-N-methylpropanamide] | -46 | -71 | 50 | – | – | -63 | 780 | – |

Source: US5917057A, “N-hydroxy-dibenz[b,e]oxepinalkylamines, n-hydroxy-dibenz[b,e]oxepinalkanoic acid amides and related heterocyclic analogues” (Hoechst Marion Roussel, Inc., priority 1998, dated 1999)
